Test results from ChEMBL document CHEMBL1201862, “PubChem BioAssay data set” (2004).
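48-hour exposure; five concentrations; linearly interpolated endpoints. GI50 = concentration required for 50% inhibition of growth.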 Calls of active or inactive are those of the source. Cut-off read from the data, not from the text of the source: active = GI50 up to about 1.1 µM and inactive = higher.

How the values were obtained:
Assay in all cases: growth of human tumour cells (NCI), 48 h
[1] = test system: HL-60
[2] = test system: HOP-62
[3] = test system: CCRF-CEM
[4] = test system: SF-268
[5] = test system: SR
[6] = test system: OVCAR-3
[7] = test system: NCI-H460
[8] = test system: CAKI-1
[9] = test system: A549
[10] = test system: OVCAR-4
[11] = test system: SK-OV-3
[12] = test system: IGROV-1
[13] = test system: 786-0
[14] = test system: UACC-62
[15] = test system: NCI-H522
[16] = test system: RXF 393

O=C(CN(Cc1ccccc1)Cc1ccccc1)N1CCc2c([nH]c3ccccc23)C1c1cccnc1 (centres undefined)
GI50 [1]: 1.71 µM (inactive) | GI50 [2]: 39 µM (inactive) | GI50 [3]: 4.11 µM (inactive) | GI50 [4]: 9.51 µM (inactive) | GI50 [5]: 5.28 µM (inactive) | GI50 [6]: 5.82 µM (inactive) | GI50 [7]: 5.58 µM (inactive) | GI50 [8]: 4.85 µM (inactive) | GI50 [9]: 4.59 µM (inactive) | GI50 [10]: 3.99 µM (inactive) | GI50 [11]: 80.9 µM (inactive) | GI50 [12]: 29.7 µM (inactive) | GI50 [13]: 5.87 µM (inactive) | GI50 [14]: 11.1 µM (inactive) | GI50 [15]: 4.8 µM (inactive)

CC(Oc1ccc(OCC2CCCCC2)cc1)C(=O)OCC(=O)c1ccc(-c2ccccc2)cc1 (centres undefined)
GI50 [1]: > 100 µM (inactive) | GI50 [3]: > 100 µM (inactive) | GI50 [4]: > 100 µM (inactive) | GI50 [16]: > 100 µM (inactive) | GI50 [6]: > 100 µM (inactive) | GI50 [7]: > 100 µM (inactive) | GI50 [9]: > 100 µM (inactive) | GI50 [10]: > 100 µM (inactive) | GI50 [11]: > 100 µM (inactive) | GI50 [12]: > 100 µM (inactive) | GI50 [13]: > 100 µM (inactive) | GI50 [14]: > 100 µM (inactive) | GI50 [15]: > 100 µM (inactive)

COc1cccc(-c2cc(O)c3cc(OC)c(OC)cc3n2)c1
GI50 [1]: 33.1 µM (inactive) | GI50 [2]: 42.1 µM (inactive) | GI50 [3]: 31.8 µM (inactive) | GI50 [5]: 56.1 µM (inactive) | GI50 [7]: 30.3 µM (inactive) | GI50 [9]: 47.4 µM (inactive) | GI50 [11]: 87.3 µM (inactive) | GI50 [12]: 89.3 µM (inactive) | GI50 [13]: 46.6 µM (inactive) | GI50 [14]: 43.6 µM (inactive) | GI50 [15]: 19.8 µM (inactive)

O=C1C(c2ccccc2)=C(c2ccccc2)[C@H](c2ccccc2)[C@]1(Cc1nnn(-c2ccc([N+](=O)[O-])cc2)c1N1CCOCC1)c1ccccc1
GI50 [1]: > 37.5 µM (inactive) | GI50 [2]: > 37.5 µM (inactive) | GI50 [3]: > 37.5 µM (inactive) | GI50 [16]: 9.62 µM (inactive) | GI50 [6]: 9.93 µM (inactive) | GI50 [7]: > 37.5 µM (inactive) | GI50 [8]: > 37.5 µM (inactive) | GI50 [9]: > 37.5 µM (inactive) | GI50 [10]: 13.7 µM (inactive) | GI50 [11]: > 37.5 µM (inactive) | GI50 [12]: > 37.5 µM (inactive) | GI50 [13]: > 37.5 µM (inactive) | GI50 [14]: > 37.5 µM (inactive)

Cc1cc(C(=O)NCCN(C)C)c2nc3ccccc3nc2c1
GI50 [1]: 3.41 µM (inactive) | GI50 [2]: 2.17 µM (inactive) | GI50 [16]: 5.37 µM (inactive) | GI50 [5]: 0.453 µM (active) | GI50 [6]: 5.71 µM (inactive) | GI50 [9]: 3.88 µM (inactive) | GI50 [10]: 4.75 µM (inactive) | GI50 [11]: 11.7 µM (inactive) | GI50 [12]: 4.81 µM (inactive) | GI50 [13]: 7.8 µM (inactive) | GI50 [14]: 6.32 µM (inactive) | GI50 [15]: 16.6 µM (inactive)

COc1cc2c(cc1OC)[C@]1(O)C(=O)c3ccc4c(c3O[C@@H]1CO2)C[C@H](C(C)(C)O)O4
GI50 [1]: 24.9 µM (inactive) | GI50 [2]: > 100 µM (inactive) | GI50 [3]: 68.1 µM (inactive) | GI50 [16]: 8.3 µM (inactive) | GI50 [6]: 74.3 µM (inactive) | GI50 [7]: > 100 µM (inactive) | GI50 [9]: > 100 µM (inactive) | GI50 [11]: > 100 µM (inactive) | GI50 [12]: > 100 µM (inactive) | GI50 [13]: > 100 µM (inactive) | GI50 [14]: > 100 µM (inactive) | GI50 [15]: 5.86 µM (inactive)

N#CCCc1nc2ccc(Br)cc2c(=O)n1CCO
GI50 [1]: > 100 µM (inactive) | GI50 [2]: > 100 µM (inactive) | GI50 [3]: > 100 µM (inactive) | GI50 [4]: > 100 µM (inactive) | GI50 [16]: > 100 µM (inactive) | GI50 [6]: > 100 µM (inactive) | GI50 [8]: > 100 µM (inactive) | GI50 [9]: > 100 µM (inactive) | GI50 [10]: > 100 µM (inactive) | GI50 [11]: > 100 µM (inactive) | GI50 [12]: > 100 µM (inactive) | GI50 [13]: > 100 µM (inactive) | GI50 [14]: > 100 µM (inactive) | GI50 [15]: > 100 µM (inactive)

CC1=CC(=O)NP(=O)(Oc2ccc(Cl)cc2)N1 (centres undefined)
GI50 [1]: 55.6 µM (inactive) | GI50 [2]: > 100 µM (inactive) | GI50 [3]: > 100 µM (inactive) | GI50 [4]: > 100 µM (inactive) | GI50 [16]: > 100 µM (inactive) | GI50 [5]: > 100 µM (inactive) | GI50 [6]: > 100 µM (inactive) | GI50 [7]: > 100 µM (inactive) | GI50 [8]: > 100 µM (inactive) | GI50 [9]: > 100 µM (inactive) | GI50 [10]: > 100 µM (inactive) | GI50 [11]: > 100 µM (inactive) | GI50 [12]: > 100 µM (inactive) | GI50 [13]: > 100 µM (inactive) | GI50 [14]: > 100 µM (inactive) | GI50 [15]: > 100 µM (inactive)

O=[N+]([O-])c1cccc(C2SCc3nc4ccccc4n32)c1 (centres undefined)
GI50 [1]: 54.3 µM (inactive) | GI50 [2]: > 100 µM (inactive) | GI50 [3]: > 100 µM (inactive) | GI50 [4]: > 100 µM (inactive) | GI50 [16]: 73.5 µM (inactive) | GI50 [5]: 82.4 µM (inactive) | GI50 [7]: > 100 µM (inactive) | GI50 [8]: 21.8 µM (inactive) | GI50 [9]: > 100 µM (inactive) | GI50 [10]: 63.8 µM (inactive) | GI50 [11]: > 100 µM (inactive) | GI50 [12]: 33 µM (inactive) | GI50 [13]: > 100 µM (inactive) | GI50 [14]: 34.3 µM (inactive)

CC(C)C(/C=C/c1ccccc1)=N\NC(=O)N/N=C(/C=C/c1ccccc1)C(C)C
GI50 [1]: 15.2 µM (inactive) | GI50 [2]: 40.6 µM (inactive) | GI50 [3]: 28.2 µM (inactive) | GI50 [4]: 48 µM (inactive) | GI50 [5]: 20.8 µM (inactive) | GI50 [7]: 14.4 µM (inactive) | GI50 [8]: 6.98 µM (inactive) | GI50 [9]: 23.1 µM (inactive) | GI50 [10]: 35 µM (inactive) | GI50 [11]: 40.2 µM (inactive) | GI50 [12]: 39.1 µM (inactive) | GI50 [13]: 18.9 µM (inactive) | GI50 [14]: 56.9 µM (inactive) | GI50 [15]: 17.1 µM (inactive)
